What is called MIC is the smallest concentration in the dilution series that meets the test's criterion for growth inhibition. One may read the HC50 as the concentration that lyses half of the red blood cells. Lower therefore signals more damage to red cells.

Active and inactive are the calls of the source. Where a SMILES comes first, the peptide text is derived from it. Bridges are numbered along the chain shown (N, C = ends). [ ]: non-standard residue; d: D form. The star is where a group is joined. X1 = C[C@H](O)[C@H]1C(=O)N2C(C(=O)*)=C(S[C@@H]3CN[C@H](C(=O)N(C)C)C3)[C@@H](C)[C@H]12; X2 = CC[C@H](C)CCCCC(=O)*; Dab = NCC[C@H](N)C(=O)O

Here are results for eleven compounds from ChEMBL document CHEMBL5154823, “Amphiphilic cyclic peptide [W4KR5]-Antibiotics combinations as broad-spectrum antimicrobial agents” (Eur J Med Chem, 2022).

The subject of data set [1] is Klebsiella pneumoniae. Put plainly: Antibacterial activity against imipenem resistant Klebsiella pneumoniae ATCC BAA 1705 assessed as reduction in microbial growth incubated for 24 hrs by microbroth dilution method. It counts as functional.
For data set [2], the system named is Pseudomonas aeruginosa. Put plainly: Antibacterial activity against Pseudomonas aeruginosa ATCC 27883 assessed as reduction in microbial growth incubated for 24 hrs by microbroth dilution method. It counts as functional. In general terms: Broth dilution looks for growth in wells or tubes with falling amounts of substance.
The subject of data set [3] is Escherichia coli. Put plainly: Antibacterial activity against Escherichia coli ATCC 25922 assessed as reduction in microbial growth incubated for 24 hrs by microbroth dilution method. It counts as functional.
Data set [4] deals with Staphylococcus aureus. Put plainly: Antibacterial activity against Methicillin resistant Staphylococcus aureus ATCC BAA -1556 assessed as reduction in microbial growth incubated for 24 hrs by microbroth dilution method. It counts as functional.
Data set [5] relates to Cell membrane. Put plainly: Induction of membrane disruption in Staphylococcus aureus ATCC BAA -1556 assessed as increase in PI positive cells at 4 times of MIC incubated for 2 hrs by Propidium iodide staining based FACS cytometry analysis relative to control. It counts as subcellular.
A short description of data set [6]: Hemolytic activity in human Red blood cell incubated for 2 hrs by spectrophotometric analysis. It counts as toxicity, cell-based, Erythrocyte. Particulars: red blood cells (erythrocytes).
A short description of data set [7]: Cytotoxicity against HEK293 cells assessed as effect on cell viability at 10 to 25 ug/ml incubated for 24 hrs by microplate reader analysis relative to control. It counts as toxicity, cell-based. The following applies: human, at 10 to 25 µg/mL, dose 10-25 µg/ml, read-out: Activity.
Data set [8] concerns Cell membrane. Put plainly: Induction of membrane disruption in Pseudomonas aeruginosa ATCC BAA 1744 assessed as increase in PI positive cells at 4 times of MIC incubated for 2 hrs by Propidium iodide staining based FACS cytometry analysis relative to control. It counts as subcellular.
The subject of data set [9] is Staphylococcus aureus. Put plainly: Antibacterial activity against Staphylococcus aureus ATCC 29213 assessed as reduction in microbial growth incubated for 24 hrs by microbroth dilution method. It counts as functional.
Data set [10] has as its system Escherichia coli. Put plainly: Antibacterial activity against carbapenem and NDM-1 positive resistant Escherichia coli ATCC BAA 2452 assessed as reduction in microbial growth incubated for 24 hrs by microbroth dilution method. It counts as functional.
For data set [11], the system named is Pseudomonas aeruginosa. Put plainly: Antibacterial activity against carbapenem resistant Pseudomonas aeruginosa ATCC BAA 1744 assessed as reduction in microbial growth incubated for 24 hrs by microbroth dilution method. It counts as functional.
In data set [12] the test system is Klebsiella pneumoniae. Put plainly: Antibacterial activity against Klebsiella pneumoniae ATCC 13883 assessed as reduction in microbial growth incubated for 24 hrs by microbroth dilution method. It counts as functional.
Data set [13] deals with HepaRG. Kind of data set: Cytotoxicity against human HepaRG cells assessed as assessed as reduction in cell viability at 50 to 150 ug/ml incubated for 24 hrs by microplate reader analysis relative to control. It counts as toxicity, cell-based. Particulars: at 50 to 150 µg/mL, dose 50-150 µg/ml.
In data set [14] the test system is HEK293. Put plainly: Cytotoxicity against HEK293 cells assessed as effect on cell viability at 10 ug/ml incubated for 24 hrs by microplate reader analysis. The following applies: human, hek293, 24 h, dose 10 µg/ml. It counts as toxicity, cell-based.
Data set [15] concerns HepaRG. Kind of data set: Cytotoxicity against human HepaRG cells assessed as assessed as reduction in cell viability at 10 ug/ml incubated for 24 hrs by microplate reader analysis. Particulars: dose 10 µg/ml. It counts as toxicity, cell-based.
Data set [16] concerns Cell membrane. Put plainly: Induction of membrane disruption in Staphylococcus aureus ATCC BAA -1556 assessed as increase in PI positive cells at MIC incubated for 2 hrs by Propidium iodide staining based FACS cytometry analysis relative to control.
Data set [17] relates to Pseudomonas aeruginosa. Kind of data set: Bactericidal activity against Pseudomonas aeruginosa ATCC BAA 1744 assessed as decrease of bacterial growth at MIC measured after 24 hrs by Time kill assay. It counts as functional, organism-based.
Data set [18] concerns Staphylococcus aureus. Put plainly: Bactericidal activity against methicillin resistant Staphylococcus aureus ATCC BAA 1556 assessed as reduction in bacterial growth at MIC measured after 16 hrs by Time kill assay. It counts as functional, organism-based.
In data set [19] the test system is Cell membrane. Put plainly: Induction of membrane disruption in Pseudomonas aeruginosa ATCC BAA 1744 assessed as increase in PI positive cells at MIC incubated for 2 hrs by Propidium iodide staining based FACS cytometry analysis relative to control.
Data set [20] relates to HEK293. Kind of data set: Cytotoxicity against HEK293 cells assessed as effect on cell viability at 10 to 200 ug/ml incubated for 24 hrs by microplate reader analysis. It counts as toxicity, cell-based. Particulars: human, hek293, 24 h, dose 10-200 µg/ml.
Data set [21] deals with Escherichia coli. Kind of data set: Bactericidal activity against Escherichia coli ATCC BAA 2452 assessed as decrease of bacterial growth at MIC measured after 15 hrs by Time kill assay. It counts as functional, organism-based.

On to `CCCCCCCCCC(=O)N[C@@H](Cc1c[nH]c2ccccc12)C(=O)N[C@H](CC(N)=O)C(=O)N[C@@H](CC(=O)O)C(=O)N[C@@H]1C(=O)NCC(=O)N[C@@H](CCCN)C(=O)N[C@@H](CC(=O)O)C(=O)N[C@H](C)C(=O)N[C@@H](CC(=O)O)C(=O)NCC(=O)N[C@H](CO)C(=O)N[C@@H]([C@H](C)CC(=O)O)C(=O)N[C@@H](CC(=O)c2ccccc2N)C(=O)O[C@@H]1C`, for which the figures for the MIC in the data set on Klebsiella pneumoniae [1], in the data set on Pseudomonas aeruginosa [2] and in the data set with Escherichia coli [3] were 256 mg/L, above 128 mg/L and above 128 mg/L, respectively.
Take `CC[C@H](C)CCCCC(=O)N[C@@H](CCN)C(=O)N[C@H](C(=O)N[C@@H](CCN)C(=O)N[C@H]1CCNC(=O)[C@H]([C@@H](C)O)NC(=O)[C@H](CCN)NC(=O)[C@H](CCN)NC(=O)[C@H](CC(C)C)NC(=O)[C@@H](Cc2ccccc2)NC(=O)[C@H](CCN)NC1=O)[C@@H](C)O` (X2-[Dab]T[Dab][Dab][Dab][dF]L[Dab][Dab]T; lactam 4-C): the MIC was determined as 64 mg/L with Staphylococcus aureus [4], 1 mg/L in the data set with Klebsiella pneumoniae [1], 1 mg/L in the data set on Pseudomonas aeruginosa [2] and 2 mg/L in the data set on Escherichia coli [3].
For the compound `C[C@H](O)[C@H]1C(=O)N2C(C(=O)NCCCC[C@@H]3NC(=O)[C@H](CCCNC(=N)N)NC(=O)[C@H](CCCNC(=N)N)NC(=O)[C@H](CCCNC(=N)N)NC(=O)[C@H](CCCNC(=N)N)NC(=O)[C@H](CCCNC(=N)N)NC(=O)[C@H](Cc4c[nH]c5ccccc45)NC(=O)[C@H](Cc4c[nH]c5ccccc45)NC(=O)[C@H](Cc4c[nH]c5ccccc45)NC(=O)[C@H](Cc4c[nH]c5ccccc45)NC3=O)=C(S[C@@H]3CN[C@H](C(=O)N(C)C)C3)[C@@H](C)[C@H]12` (cyclo(K(X1)WWWWRRRRR)), the minimum inhibitory concentration (MIC) with Staphylococcus aureus [4] amounted to 4 mg/L; in the data set with Klebsiella pneumoniae [1], 16 mg/L; with Staphylococcus aureus [9], 2 mg/L; in the data set with Escherichia coli [10], 8 mg/L; with Pseudomonas aeruginosa [11], 16 mg/L; with Klebsiella pneumoniae [12], 4 mg/L. Moreover, the minimum inhibitory concentration (MIC) in the data set on Pseudomonas aeruginosa [2] is 16 mg/L; with Escherichia coli [3], 4 mg/L. Moreover, the Activity with Cell membrane [5] was 29.6%; in the data set with Cell membrane [8] it was 26.4%; with HepaRG [13], 69%; in the data set with HEK293 [14], “Non-Toxic”; in the data set with HepaRG [15], “Non-Toxic”. Besides, the 50% haemolytic concentration (HC50) at 2 h in [6] was 255 µg/mL. Also, the viability at 24 h in data set [7] is 90%.
`O=C(O)c1cn(C2CC2)c2cc(N3CCNCC3)c(F)cc2c1=O` [CIPROFLOXACIN]: in the data set on Escherichia coli [3], the MIC worked out at 64 mg/L.
With `CCC[C@@H]1C[C@@H](C(=O)N[C@@H]([C@H]2O[C@H](SC)[C@H](O)[C@@H](O)[C@H]2O)[C@H](C)Cl)N(C)C1` [CLINDAMYCIN], the figures for the MIC in the data set with Klebsiella pneumoniae [1] and in the data set with Pseudomonas aeruginosa [2] were 256 mg/L and above 128 mg/L, respectively.
In the case of `NC[C@H]1O[C@H](O[C@H]2[C@H](O)[C@@H](O[C@H]3O[C@H](CO)[C@@H](O)[C@H](N)[C@H]3O)[C@H](N)C[C@@H]2N)[C@H](O)[C@@H](O)[C@@H]1O` [KANAMYCIN], the minimum inhibitory concentration (MIC) with Staphylococcus aureus [4] is above 128 mg/L; in the data set with Klebsiella pneumoniae [1] it was 64 mg/L; with Pseudomonas aeruginosa [2], above 128 mg/L; in the data set with Escherichia coli [3], 32 mg/L.
For the compound `C[C@H]1COc2c(N3CCN(C)CC3)c(F)cc3c(=O)c(C(=O)O)cn1c23.C[C@H]1COc2c(N3CCN(C)CC3)c(F)cc3c(=O)c(C(=O)O)cn1c23.O` [LEVOFLOXACIN], the figures for the minimal inhibitory concentration (MIC) in the data set on Staphylococcus aureus [4], in the data set with Klebsiella pneumoniae [1] and with Escherichia coli [3] were above 128 mg/L, 64 mg/L and 64 mg/L, respectively.
For `C[C@@H](O)[C@H]1C(=O)N2C(C(=O)O)=C(S[C@@H]3CN[C@H](C(=O)N(C)C)C3)[C@H](C)[C@H]12` [MEROPENEM], the minimal inhibitory concentration (MIC) in the data set with Staphylococcus aureus [4] was found to be 2 mg/L; with Staphylococcus aureus [9] it was 2 mg/L; with Pseudomonas aeruginosa [11], 8 mg/L; in the data set with Klebsiella pneumoniae [12], 1 mg/L; with Pseudomonas aeruginosa [2], 1 mg/L; in the data set on Escherichia coli [3], 1 mg/L. In addition, the Activity with Cell membrane [5] is 17.2%; with Cell membrane [16] it was 12.2%; in the data set on Cell membrane [19] it was 14.7%; in the data set with HEK293 [20], “Non-Toxic”; in the data set on Cell membrane [8], 22.1%; in the data set on HEK293 [14] it was “Non-Toxic”. In addition, the Activity entry in the data set with HepaRG [15] is given as “Non-Toxic”. In [6], the HC50 at 2 h is above 500 µg/mL. Further, the outcome with Pseudomonas aeruginosa [17], in the data set with Staphylococcus aureus [18] and in the data set with Escherichia coli [21] was Active.
For the compound `CN(C)[C@@H]1C(O)=C(C(N)=O)C(=O)[C@@]2(O)C(O)=C3C(=O)c4c(O)cccc4[C@@](C)(O)[C@H]3C[C@@H]12` [TETRACYCLINE], the MIC in the data set on Staphylococcus aureus [4] amounted to 0.25 mg/L; in the data set on Klebsiella pneumoniae [1], 16 mg/L; in the data set with Pseudomonas aeruginosa [2], 32 mg/L; in the data set with Escherichia coli [3], 8 mg/L.
In the case of `NC[C@H]1O[C@H](O[C@H]2[C@H](O)[C@@H](O[C@H]3O[C@H](CO)[C@@H](O)[C@H](N)[C@H]3O)[C@H](N)C[C@@H]2N)[C@H](N)C[C@@H]1O` [TOBRAMYCIN], the MIC came to 0.5 mg/L in the data set with Staphylococcus aureus [4], 16 mg/L in the data set with Klebsiella pneumoniae [1], 0.5 mg/L with Pseudomonas aeruginosa [2] and 8 mg/L with Escherichia coli [3].
For the compound `CN[C@H](CC(C)C)C(=O)N[C@H]1C(=O)N[C@@H](CC(N)=O)C(=O)N[C@H]2C(=O)N[C@H]3C(=O)N[C@H](C(=O)N[C@H](C(=O)O)c4cc(O)cc(O)c4-c4cc3ccc4O)[C@H](O)c3ccc(c(Cl)c3)Oc3cc2cc(c3O[C@@H]2O[C@H](CO)[C@@H](O)[C@H](O)[C@H]2O[C@H]2C[C@](C)(N)[C@H](O)[C@H](C)O2)Oc2ccc(cc2Cl)[C@H]1O` [VANCOMYCIN], the minimum inhibitory concentration (MIC) with Klebsiella pneumoniae [1], in the data set with Pseudomonas aeruginosa [2] and with Escherichia coli [3] was 256 mg/L throughout.
